# Measured values: ChEMBL document CHEMBL1143727, “Terpenoids from the medicinal plant Maytenus ilicifolia” (J Nat Prod, 2007)
# Activity calls are given as the source filed them. No cut-off for these calls is given here.
# Test system: Saccharomyces cerevisiae
# Experiment: Antimicrobial activity against DNA damage check point deffective Saccharomyces cerevisiae mutants
# Format: functional, organism-based
row,SMILES,Activity
1,COc1cc(C(=O)Oc2c(O)cc3c(c2C)C(O)CC2[C@@]3(C)CC[C@@]3(C)C4C[C@@H](C)C(=O)C[C@]4(C)CC[C@]23C)ccc1O (some centres undefined),inactive
2,COC(=O)[C@]1(C)CC[C@](C)(CC[C@]2(C)C(/C=C\c3ccc4c(c3C)O[C@]3(O)C(=O)C=C5C(=CC=C6[C@@]5(C)CC[C@@]5(C)C7C[C@@H](C)C(=O)C[C@]7(C)CC[C@]65C)[C@]3(C)O4)[C@@H](C)CC[C@@H]2C)CC1 (some centres undefined),inactive
3,C=C(C)C1CCC(C)[C@@]23CC=C(C)[C@]2(C1)Oc1cc2c(c(C)c1O3)C(=O)C=C1[C@@]2(C)CC[C@@]2(C)C3C[C@@H](C)C(=O)C[C@]3(C)CC[C@]12C (some centres undefined),inactive
4,C=C(C)C1CCC(C)[C@@]23CC=C(C)[C@]2(C1)Oc1c(cc2c(c1C)C=CC1[C@@]2(C)CC[C@@]2(C)C4C[C@@H](C)C(=O)C[C@]4(C)CC[C@]12C)O3 (some centres undefined),inactive
